According to patent publication US10912780B2, “Heterocyclic compounds useful as anti-bacterial agents and method for production thereof” (Bugworks Research, Inc., priority 2017, dated 2021):
Values after ≈ are worked out from the molar mass of the structure shown. Values joined by “and” are separate entries in the source; they are usually repeats but may differ in a detail not shown here. Equal entries are not always repeated.

Experiments:
E. coli topoisomerase IV = E. coli topoisomerase IV (Escherichia coli, UniProt P0AFI2+P20083); assay: biochemical; conditions: decatenation assay; read-out: E. coli Topo IV IC50
[1] = test system: Pseudomonas aeruginosa ATCC 27853; assay: Minimum Inhibitory Concentration (MIC) in LB media; format: cell-based; conditions: Pseudomonas aeruginosa, ATCC27853, read-out: Minimum Inhibitory Concentration P. aeruginosa ATCC 27853
Summary of the method: (§1)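 Broth microdilution in LB using cultures grown to OD600 0.8 to 1; compounds tested as twofold dilutions from a 4 mg/ml DMSO stock. Plates incubated overnight at 37° C., growth read by absorbance at 600 nm to give MIC.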

[2] = test system: Staphylococcus aureus ATCC 29213; assay: Minimum Inhibitory Concentration (MIC) in LB media; format: cell-based; conditions: Staphylococcus aureus, ATCC29213, read-out: Minimum Inhibitory Concentration S. aureus ATCC 29213
Summary of the method: as §1

[3] = test system: Enterococcus faecalis ATCC 29212; assay: Minimum Inhibitory Concentration (MIC) in LB media; format: cell-based; conditions: Enterococcus faecalis, ATCC29212, read-out: Minimum Inhibitory Concentration E. faecalis ATCC 29212
Summary of the method: as §1

[4] = test system: Escherichia coli ATCC 25922; assay: Minimum Inhibitory Concentration (MIC) in LB media; format: cell-based; conditions: Escherichia coli, ATCC25922, read-out: Minimum Inhibitory Concentration E. coli ATCC 25922
Summary of the method: as §1

[5] = test system: Klebsiella pneumoniae ATCC 13883; assay: Minimum Inhibitory Concentration (MIC) in LB media; format: cell-based; conditions: Klebsiella pneumoniae, ATCC13883, read-out: Minimum Inhibitory Concentration K. pneumoniae ATCC 13883
Summary of the method: as §1

[6] = test system: K. pneumoniae [ATCC13883]; assay: Neutropenic thigh infection model in rat; format: in vivo
[7] = IV formulation solubility; format: physicochemical; conditions: 10% L-ascorbic acid in MilliQ water (IV formulation), aqueous with cosolvent or surfactant or cyclodextrin, IV formulation: 10% L-Ascorbic acid, 1N NaOH for pH adjustment, read-out: Solubility in 10% L-ascorbic acid in fresh MilliQ water(v/v), Final
Protocol: Procedure: Weighed appropriate amount of the Example 15 to be tested and dissolved in 1 ml of the 10% ascorbic acid solution. (Vortex for a few seconds if the compound doesn't dissolve instantly). Sonicated the compound solution at room temperature for 5 minutes using a bath sonicator to obtain a visually clear solution. […]

[8] = molecular target: T1, human ether a go-go related gene (hERG) K+ channel (Homo sapiens, UniProt Q12809); assay: hERG inhibition assay, QPatch HTX automated electrophysiology; format: cell-based; conditions: CHO cell line stably expressing hERG, whole-cell patch clamp, maximum test concentration 300 μM
T1 construct: Chinese Hamster Ovary cell line stably expressing the full-length hERG potassium channel; expressed in transfected cells
Protocol: The compounds were tested for inhibition of the human ether a go-go related gene (hERG) K+ channel using QPatch HTX automated electrophysiology.
Compounds were solubilised to 100 mM in DMSO before dilution in HBPS to 300 μM.
Electrophysiological recordings were made from a Chinese Hamster Ovary cell line stably expressing the full-length hERG potassium channel. Single cell ionic currents were measured in whole-cell patch clamp configuration at room temperature (21-23° C.) using the QPatch HTX platform (Sophion). Intracellular solution contained (mM): 120 KF, 20 KCl, 10 EGTA, 10 HEPES and was buffered to pH 7.3. […] Cells were clamped at a holding potential of −80 mV. […] This sweep was repeated 10 times at 10 s intervals. hERG currents were measured from the tail step and referenced to the holding current. Compounds were then incubated for 2 minutes prior to a second measurement of ion channel current using an identical pulse train.

[9] = In vivo pharmacokinetic studies in rats, 1 hr intravenous infusion; conditions: for AUC(0-t) / AUC(0-inf) / Cmax / Tmax / clearance / half-life / Vd: male, Sprague-Dawley, rat, iv; for Vd: male SD rats, 1 h IV infusion
[10] = 3 mg/kg, i.v., 1 h infusion, neutropenic rat, 10 hr post infection

Sequence of E. coli topoisomerase IV (P20083 whole entry): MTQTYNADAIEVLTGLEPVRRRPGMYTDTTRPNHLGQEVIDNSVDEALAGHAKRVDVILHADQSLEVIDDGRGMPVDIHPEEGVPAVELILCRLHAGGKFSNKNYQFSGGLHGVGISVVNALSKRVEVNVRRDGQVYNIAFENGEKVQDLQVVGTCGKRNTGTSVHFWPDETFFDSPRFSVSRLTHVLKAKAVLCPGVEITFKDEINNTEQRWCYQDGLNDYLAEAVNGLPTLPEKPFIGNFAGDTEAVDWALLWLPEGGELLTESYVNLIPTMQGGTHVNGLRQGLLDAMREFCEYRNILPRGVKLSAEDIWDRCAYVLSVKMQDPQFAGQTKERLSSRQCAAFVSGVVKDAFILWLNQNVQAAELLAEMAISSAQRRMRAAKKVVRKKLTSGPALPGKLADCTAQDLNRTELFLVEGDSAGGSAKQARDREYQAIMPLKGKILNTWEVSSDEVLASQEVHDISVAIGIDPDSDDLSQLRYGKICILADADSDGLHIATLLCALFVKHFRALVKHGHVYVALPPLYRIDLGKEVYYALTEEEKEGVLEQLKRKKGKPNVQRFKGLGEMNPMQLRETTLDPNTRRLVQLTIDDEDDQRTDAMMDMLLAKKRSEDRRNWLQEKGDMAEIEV
Sequence of E. coli topoisomerase IV (P0AFI2 whole entry): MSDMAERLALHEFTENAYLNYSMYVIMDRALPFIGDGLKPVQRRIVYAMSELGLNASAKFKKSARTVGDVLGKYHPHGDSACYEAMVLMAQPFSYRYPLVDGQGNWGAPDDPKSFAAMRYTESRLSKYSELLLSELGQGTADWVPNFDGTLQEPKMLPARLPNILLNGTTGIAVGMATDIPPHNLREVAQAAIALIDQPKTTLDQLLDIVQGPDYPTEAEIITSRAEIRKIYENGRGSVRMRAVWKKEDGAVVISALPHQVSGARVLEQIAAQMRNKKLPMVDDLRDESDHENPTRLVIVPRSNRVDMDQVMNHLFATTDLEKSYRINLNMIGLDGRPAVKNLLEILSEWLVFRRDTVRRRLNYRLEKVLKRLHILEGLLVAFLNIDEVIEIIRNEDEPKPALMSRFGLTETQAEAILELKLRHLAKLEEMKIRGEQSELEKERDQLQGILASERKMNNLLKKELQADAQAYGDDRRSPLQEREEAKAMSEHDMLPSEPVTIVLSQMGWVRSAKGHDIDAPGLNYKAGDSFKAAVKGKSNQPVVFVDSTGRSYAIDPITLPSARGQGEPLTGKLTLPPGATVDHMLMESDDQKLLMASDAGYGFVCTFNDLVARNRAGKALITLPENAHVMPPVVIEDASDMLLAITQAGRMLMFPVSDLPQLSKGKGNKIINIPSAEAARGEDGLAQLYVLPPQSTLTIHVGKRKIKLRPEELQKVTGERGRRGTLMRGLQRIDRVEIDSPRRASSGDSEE
T1 sequence (Q12809 whole entry): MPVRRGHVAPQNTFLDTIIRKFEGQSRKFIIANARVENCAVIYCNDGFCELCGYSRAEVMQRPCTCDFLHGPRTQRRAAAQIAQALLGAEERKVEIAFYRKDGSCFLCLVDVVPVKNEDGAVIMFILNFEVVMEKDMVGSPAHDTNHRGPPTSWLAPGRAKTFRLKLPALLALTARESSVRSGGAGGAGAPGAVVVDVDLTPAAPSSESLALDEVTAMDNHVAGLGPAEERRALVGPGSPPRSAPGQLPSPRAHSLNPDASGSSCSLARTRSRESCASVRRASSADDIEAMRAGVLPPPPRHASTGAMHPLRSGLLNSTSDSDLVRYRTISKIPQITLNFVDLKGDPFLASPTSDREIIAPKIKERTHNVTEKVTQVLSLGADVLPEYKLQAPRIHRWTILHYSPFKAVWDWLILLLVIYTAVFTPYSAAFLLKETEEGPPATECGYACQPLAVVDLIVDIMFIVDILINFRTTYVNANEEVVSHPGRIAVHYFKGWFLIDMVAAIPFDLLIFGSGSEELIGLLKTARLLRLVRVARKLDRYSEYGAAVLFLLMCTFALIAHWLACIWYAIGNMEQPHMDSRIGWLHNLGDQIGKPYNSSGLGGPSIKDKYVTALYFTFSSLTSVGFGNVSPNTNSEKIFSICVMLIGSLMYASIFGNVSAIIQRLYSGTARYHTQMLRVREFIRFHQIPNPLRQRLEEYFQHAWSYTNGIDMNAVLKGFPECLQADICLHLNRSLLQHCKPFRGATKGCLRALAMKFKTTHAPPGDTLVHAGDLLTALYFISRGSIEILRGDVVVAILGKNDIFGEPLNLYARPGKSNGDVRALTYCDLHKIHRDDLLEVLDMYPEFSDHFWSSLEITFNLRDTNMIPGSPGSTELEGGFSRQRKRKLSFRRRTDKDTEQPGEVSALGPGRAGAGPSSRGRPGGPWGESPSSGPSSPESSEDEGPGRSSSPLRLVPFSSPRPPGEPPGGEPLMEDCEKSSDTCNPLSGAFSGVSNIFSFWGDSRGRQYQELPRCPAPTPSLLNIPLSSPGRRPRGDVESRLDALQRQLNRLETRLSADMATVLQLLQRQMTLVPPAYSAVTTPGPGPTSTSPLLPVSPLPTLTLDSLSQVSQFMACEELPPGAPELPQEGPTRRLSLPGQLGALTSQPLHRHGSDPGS

`Cn1c(=O)ccc2ccc(F)c(CCNC[C@H]3CN(c4cnc5c(n4)NC(=O)CO5)C(=O)O3)c21` [Example 15, (S)-6-(5-(((2-(7-fluoro-1-methyl-2-oxo-1,2-dihydroquinolin-8-yl)ethyl)amino)methyl)-2-oxooxazolidin-3-yl)-2H-pyrazino[2,3-b][1,4]oxazin-3(4H)-one] showed an IC50 (E. coli topoisomerase IV) of 0.01 µM, an MIC [1] of 0.25 µg/mL (≈ 0.534 µM) and an MIC [2] of at most 0.015 µg/mL. The MIC [3] was 0.06 µg/mL (≈ 0.128 µM), the MIC [4] was 0.03 µg/mL (≈ 0.064 µM) and the MIC [5] was 0.03 µg/mL (≈ 0.064 µM). For the same compound, the “MEAN ± SD (Log 10 CFU/g thigh)” value [6, 10] was 4.10 ± 0.46 Log 10 CFU/g thigh, the “Mean Log10CFU/g thigh reduction (wrt 2 h PI control: 4.72 Log10CFU/g thigh)” value [6, 10] was 0.62 Log10CFU/g thigh and the “Mean Log10CFU/g thigh reduction (wrt 2 h PI control: 4.72 Log10CFU/g thigh)” value ([6]; 10 mg/kg, i.v., 1 h infusion, neutropenic rat, 10 hr post infection) was 1.81 Log10CFU/g thigh. The “Log 10 CFU/g thigh” value ([6]; individual animals, 3 mg/kg, i.v., 1 h infusion, neutropenic rat, 10 hr post infection) was 4.1 Log 10 CFU/g thigh and 4.56 Log 10 CFU/g thigh and 3.65 Log 10 CFU/g thigh, the “efficacy compared to the 2 h PI control (in words)” value ([6]; rat thigh model, 3 mg/kg) was “bacteriostatic” and the solubility at 5 min [7] was 25 mg/mL (≈ 53400 µM). For the same compound, the IC50 [8] was 131 µM, the “clearance (in words)” value ([9]; SD rats, 1 hr IV infusion) was “moderate” and the “half life (in words)” value ([9]; SD rats, 1 hr IV infusion) was “short”. The “volume of distribution (in words)” value ([9]; SD rats, 1 hr IV infusion) was “low”, the “AUC and Cmax versus dose (in words)” value ([9]; SD rats, IV infusion at 5, 10, 30 & 100 mg/kg) was “Dose proportional increase” and the AUC(0-t) ([9]; in vivo) was 104000 ± 7300 ng·h/mL. It also gave an AUC(0-inf) ([9]; in vivo, 30 mg/kg) of 14700 ± 200 ng·h/mL, an AUC(0-t) ([9]; in vivo, 30 mg/kg) of 14700 ± 200 ng·h/mL and a Cmax ([9]; in vivo, 30 mg/kg) of 15200 ± 2200 ng/mL. It also gave a Tmax ([9]; in vivo, 30 mg/kg) of 1 h, a clearance ([9]; in vivo, 30 mg/kg) of 34 mL/min/kg and a half-life ([9]; in vivo, 30 mg/kg) of 0.96 ± 0.02 h. It also gave a Vd ([9]; in vivo, 30 mg/kg, Vd) of 2.83 ± 0.09 L/kg, a Vd ([9]; in vivo, 30 mg/kg, Vss, 30 mg/kg) of 0.84 ± 0.06 L/kg and an AUC(0-inf) ([9]; in vivo, 100 mg/kg) of 73700 ± 15300 ng·h/mL. For the same compound, the AUC(0-t) ([9]; in vivo, 100 mg/kg) was 73700 ± 15300 ng·h/mL, the Cmax ([9]; in vivo, 100 mg/kg) was 62600 ± 6700 ng/mL and the Tmax ([9]; in vivo, 100 mg/kg) was 1 h. It also gave a clearance ([9]; in vivo, 100 mg/kg) of 23.3 mL/min/kg, a half-life ([9]; in vivo, 100 mg/kg) of 4.93 ± 0.5 h and a Vd ([9]; in vivo, 100 mg/kg, Vd) of 9.86 ± 1.68 L/kg. It also gave a Vd ([9]; in vivo, 100 mg/kg, Vss, 100 mg/kg) of 0.9 ± 0.05 L/kg, an AUC(0-inf) ([9]; in vivo, 150 mg/kg) of 104000 ± 7300 ng·h/mL and a Cmax ([9]; in vivo, 150 mg/kg) of 101000 ± 146000 ng/mL. It also gave a Tmax ([9]; in vivo, 150 mg/kg) of 1 h, a clearance ([9]; in vivo, 150 mg/kg) of 24.2 mL/min/kg and a half-life ([9]; in vivo, 150 mg/kg) of 6.17 ± 0.42 h. It also gave a Vd ([9]; in vivo, 150 mg/kg, Vd) of 12.9 ± 1 L/kg, a Vd ([9]; in vivo, 150 mg/kg, Vss, 150 mg/kg) of 0.86 ± 0.04 L/kg and an AUC(0-inf) ([9]; plasma, 5 mg/kg) of 1700 ± 50 ng·h/mL. It also gave an AUC(0-t) ([9]; plasma, 5 mg/kg) of 1700 ± 50 ng·h/mL, a Cmax ([9]; plasma, 5 mg/kg) of 2400 ± 60 ng/mL and a Tmax ([9]; plasma, 5 mg/kg) of 0.77 ± 0.01 h. For the same compound, the clearance ([9]; plasma, 5 mg/kg) was 48.7 mL/min/kg, the half-life ([9]; plasma, 5 mg/kg) was 0.53 ± 0.03 h and the Vd ([9]; plasma, 5 mg/kg, Vd) was 2.21 ± 0.012 L/kg. For the same compound, the Vd ([9]; plasma, 5 mg/kg, Vss, 5 mg/kg) was 0.91 ± 0.05 L/kg.
